Measured values reported in PMC9110388, “Integrative structure determination reveals functional global flexibility for an ultra-multimodular arabinanase” (Communications Biology, 2022).

Target: T1, AbnA-WT (Geobacillus stearothermophilus, UniProt B3EYN2)
T1 sequence (B3EYN2 29-848): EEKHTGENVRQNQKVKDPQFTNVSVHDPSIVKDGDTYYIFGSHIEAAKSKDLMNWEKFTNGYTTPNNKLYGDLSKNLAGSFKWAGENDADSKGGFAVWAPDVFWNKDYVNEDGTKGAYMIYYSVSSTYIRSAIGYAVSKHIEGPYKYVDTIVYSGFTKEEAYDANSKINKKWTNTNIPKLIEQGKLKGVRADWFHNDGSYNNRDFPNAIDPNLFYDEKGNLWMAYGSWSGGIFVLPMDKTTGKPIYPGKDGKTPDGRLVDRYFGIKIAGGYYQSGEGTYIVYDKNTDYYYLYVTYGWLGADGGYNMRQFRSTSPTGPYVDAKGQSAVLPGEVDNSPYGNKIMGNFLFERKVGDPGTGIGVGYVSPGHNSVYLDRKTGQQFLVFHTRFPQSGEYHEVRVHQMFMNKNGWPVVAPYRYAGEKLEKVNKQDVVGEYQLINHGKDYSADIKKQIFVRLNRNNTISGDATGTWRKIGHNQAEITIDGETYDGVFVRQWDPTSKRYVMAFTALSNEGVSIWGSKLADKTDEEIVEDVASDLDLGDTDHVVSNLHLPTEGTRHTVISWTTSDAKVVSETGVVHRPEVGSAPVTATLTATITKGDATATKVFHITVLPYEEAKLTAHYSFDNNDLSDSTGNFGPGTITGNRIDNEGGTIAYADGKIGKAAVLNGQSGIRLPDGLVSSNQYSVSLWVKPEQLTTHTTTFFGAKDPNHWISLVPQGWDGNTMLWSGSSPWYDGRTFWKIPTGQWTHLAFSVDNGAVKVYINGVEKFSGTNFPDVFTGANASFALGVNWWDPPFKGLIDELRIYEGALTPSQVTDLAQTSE
Test: X-ray crystal structure, soaked crystal, […] A
Type: binding
Conditions: bound in Domain4 (CBM-like) cleft, not in the active site; 5 mM soak ~30 s; 70% occupancy

Q: How did the “X-ray crystal structure, soaked crystal, 2.95 A” value turn out when `OC[C@@H]1O[C@@H](OC[C@@H]2O[C@@H](OC[C@@H]3O[C@@H](OC[C@@H]4O[C@@H](OC[C@@H]5OC(O)[C@H](O)[C@H]5O)[C@H](O)[C@H]4O)[C@H](O)[C@H]3O)[C@H](O)[C@H]2O)[C@H](O)[C@H]1O` (stereo partly shown) [A5, arabinopentaose] was run?
A: extra density was observed in Domain4, and this could be clearly modelled as an arabinopentaose molecule
